Assays:
[1] = In vitro atrazine release from nanoformulations (dialysis); type: physicochemical; details: after 94 hours, DI water, dialysis 12 kDa
Protocol: B) In vitro atrazine release from nanoformulations: A dialysis tubing (MWCO 12 kDa, Sigma-Aldrich, St. Louis, USA) was taken with nfATZ (2 mg), where the total amount of ATZ loaded was 200 μg. In another dialysis tubing, 200 μg of ATZ (bulk form) dispersed in 2 ml of distilled water (DW) with 0.1% w/v sodium azide was taken. These dialysis bags were kept in 18 mL of DW containing sodium azide, and the release studies were done at 37° C. in a shaker bath (SW23, Julabo, Seelbach, Germany) at 50 rpm. At regular intervals, 1 mL of DW was withdrawn and replaced with 1 mL of fresh DW to maintain the sink conditions. The withdrawn DW was analyzed for the amount of ATZ released using a UV-visible spectrophotometer at λmax of 222 nm. […] After 94 hours of release studies, 60% of ATZ was released in the case of plain ATZ, while 22% of ATZ was released from the nfATZ. […] From this observation, it is noted that the another […] of release from the nano-formulation can extend up to 30 days. From these studies, inventors concluded that the nanoformulations is the best choice to control the weeds for an extended period, which can be manipulated as desired by changing concentration of EC and ATZ.

[2] = Thermal gravimetric analysis (TGA); type: physicochemical; details: TGA under N2, 10° C. min^−1
Text: A) Characterization: The morphology and size distribution of the nf and nfATZ were observed using a field emission scanning electron microscope (FE-SEM; Nova NanoSEM 450, FEI, Hillsboro, USA) and a high-resolution transmission electron microscope (HR-TEM; Tecnai TF20, 200 kV FEG, FEI, Hillsboro, USA). The ζ-potential and particle size distribution of nf and nfATZ were estimated using a PALS zeta potential analyzer (Brookhaven Instruments, Holtsville, USA). The material structural analysis was determined using a Fourier transform infrared spectrometer (FTIR; PerkinElmer, Waltham, USA) and X-ray diffractometer (XRD; PANalytical X'Pert PRO, Malvern Panalytical, Malvern, UK). The interaction between ATZ and EC was analyzed using differential scanning calorimetry (DSC). […]
The nf depicts a shift in Tg from 121° C. to 131º° C. […] The nfATZ recorded a Tg at 125° C.; a shift in the Tg from 131° C. […] Two-stage decomposition temperatures were recorded for pristine EC, 50-95° C., due to loss of moisture (weight loss, 2.9%) and 150-380° C. due to fragmentation of chemical bonds (weight loss, 85%). […] Further, it is observed that nfATZ recorded a broad first derivative peak for the weight loss, which may be due to the merging of two first derivative peaks, one for ATZ and the other for EC.

CCNc1nc(Cl)nc(NC(C)C)n1 [plain ATZ, Atrazine]
ATZ released [1]: 60%
maximum degradation temperature [2]: 230 °C

From patent US20260206745A1, “DOUBLE ENCAPSULATED NANOCOMPOSITE FOR STAGED DELIVERY OF ACTIVE INGREDIENT(S), AND A METHOD OF PRODUCING THEREOF” (COUNCIL OF SCIENTIFIC AND INDUSTRIAL RESEARCH, priority 2022, published 2026)
